Test [1] concerns Lewis rats. The test can be described thus: Intraperitoneal glucose tolerance test (IPGTT), blood glucose. The format is in vivo, rat. The procedure:
Rats were handled daily to minimize nonspecific stress for more than 7 days before the experiments began. In most experiments, it was necessary to measure blood glucose in fasting animals. For these groups, food was removed at the beginning of the light cycle, 6 hours before glucose levels were tested.
Sixty minutes prior to intraperitoneal glucose tolerance testing (IPGTT), anesthesia of male Lewis rats was induced with isoflurane (3-4% in oxygen) and maintained with 1-2% isoflurane in oxygen.
Anaesthetized rats were administered TBZ at the indicated dose by intravenous (i.v.) injection using the penile vein. […] Control rats received injections of vehicle alone (10% DMSO in Saline).
Animals were fully recovered for at least 30 minutes before receiving IPGTT. In specified experiments, L-DOPA was injected interperitoneal (I.P.) at the specified dose at the initiation of IPGTT. Abnormal glucose tolerance was induced by a single I.P. injection of streptozotocin (STZ) (Sigma Aldrich, St. Louis, Mo.) (50 mg/kg) to animals that had been fasted 4 hours to enhance the efficacy of STZ.
Blood samples were collected between 12:00 noon and 2:00 p.m. from a superficial blood vessel in the tails of the rats following 6 hours of fasting. The fasting blood glucose (BG) levels of the rats were measured using an Accu-Check blood glucose monitoring system (Roche Diagnostics, Sommerville, N.J.). IPGTT was performed in 6-hour fasting anaesthetized animals as previously described (Weksler-Zangen, et al. 2001). Briefly, after baseline BG measurements, animals received an I.P. injection of 2 grams of glucose/kg body weight. To minimize stress during the procedure, rats were handled by the same operator during acclimatization and later during weighing and IPGTT. Blood samples (50 μl or 150 μl) were collected at baseline and then again 15, 30, 60, 90, and 120 minutes following I.P. injection of glucose. Blood glucose concentrations were measured immediately on these samples and the remainder processed. Plasma was immediately separated by centrifugation at 3,000×g for 15 minutes and then stored at −80° C. until analysis.
Insulin and glucagon concentration measurements in rat plasma were performed by ELISA as per the manufacturer's instructions using kits from Linco Research Inc. (St. Charles, Mich.) and Alpco Diagnostics (Salem, N.H.), respectively. To validate the test, saline injections were performed by the same method. […] The area under the insulin, glucagon and IPGTT glucose concentration×time curve (AUC IPGTT) was calculated by the trapezoidal rule.

For test [2], the target named is T1, DPP-IV (Homo sapiens, UniProt P27487).
T1 construct: purchased BPS Bioscience, Inc. (San Diego, Calif.)
Briefly: DPP profiling service (BPS Bioscience), in vitro. Format: biochemical. The note with it: concentrations up to 10 μM. The protocol: The effect of DTBZ on DDP-IV was determined using the DPP profiling service from BPS Bioscience, Inc. (San Diego, Calif.).

For test [3], the target named is T2, VMAT2 (Rattus norvegicus, UniProt Q01827).
T2 construct: endogenous in cells; host or cells: rat INS 832/13 insulinoma cells
The test can be described thus: PET displacement of [11C]DTBZ in pancreas. Format: in vivo. The note with it: cold compound 2 mg/kg, 30 minutes after radioligand. The protocol:
PET scans were performed on 12-14-week-old Lewis male rats. Prior to imaging, the animals were anesthetized by isoflurane inhalation. After a transmission scan of the area of interest had been acquired (used to perform attenuation correction of the emission data), the radioligand [^11C]DTBZ was administered (0.5-1.0 μCi/gm) in saline as a bolus injection via the penile vein. PET scans of the animals were acquired dynamically to 90 minutes post-injection on a Concorde microPET-R4 (CTI Molecular Imaging (Knoxville, Tenn.)). The scanner provided a 100×80 mm field of view with a reconstructed resolution of 2.25 mm in the central 40 mm of the field of view.
At thirty minutes post injection of [^11C]DTBZ, animals received a second injection via the penile vein of cold analog. PET data were processed using an attenuation correction matrix obtained by transmission scans and images were reconstructed using Fourier rebinning, followed by two-dimensional, filtered back projection using microPET manager software (CTI Molecular Imaging (Knoxville, Tenn.)).
To test whether the strong hypoglycemic effect of compound 8 is conferred by binding to VMAT2 in beta cells, a PET study in rats was performed. The animals were treated with radiolabeled DTBZ, and the uptake of [^11C]DTBZ in pancreas was monitored by PET scan in the presence of an excess of compound 8.
(Loss of bound radioactivity is the signal in a displacement assay; it reports binding, not function.)

In test [4] the target is T2, VMAT2. Briefly: Fake Fluorescent Neurotransmitter (FFN) uptake high throughput assay in INS 832/13 cells. The format is cell-based. The source says: A high throughput (HTP) assay was developed to screen for compounds that interact with, e.g., bind to, VMAT2. The HTP exploits a class of compounds called Fake Fluorescent Neurotransmitters (FFN) that share the following characteristics a) low molecular weight and sufficiently hydrophilic to be water soluble; b) in aqueous buffer (pH 7), the excitation maxima is around 380-406 nm and the emission maxima is around 501 nm; and c) similar Kd for VMAT2 as dopamine. To validate the use of these compounds in beta cell lines (positive for VMAT2) the following set of experiments were performed.
The rat INS 832/13 cell line was selected because it secretes insulin in response to glucose concentrations in the physiological range and can be shown to contain VMAT2 by PCR. […] INS cells were grown on cover slips in normal media, then pretreated with and without DTBZ in low glucose media for one hour and then loaded with FFN (GH206). The distribution of fluorescent dye was then examined under a fluorescent microscope. The FFN distributes itself intracellularly in a punctate pattern similar, if not identical, to insulin containing granules of this cell line (data not shown). […] For better quantitation of the fluorescent signal, the cells were grown in […] and the same experiment substantially repeated. Briefly, cells were grown to confluence in complete high glucose media, then incubated for one hour in low glucose media. DTBZ was then added to the wells for one hour, followed with a second one hour incubation with FFN. Wells were then washed and the fluorescent signal (380 exc, 512 emm) measured in a multiwell fluorometer (Synergy HT Multi-Mode Microplate Reader).

T2 sequence (Q01827 whole entry): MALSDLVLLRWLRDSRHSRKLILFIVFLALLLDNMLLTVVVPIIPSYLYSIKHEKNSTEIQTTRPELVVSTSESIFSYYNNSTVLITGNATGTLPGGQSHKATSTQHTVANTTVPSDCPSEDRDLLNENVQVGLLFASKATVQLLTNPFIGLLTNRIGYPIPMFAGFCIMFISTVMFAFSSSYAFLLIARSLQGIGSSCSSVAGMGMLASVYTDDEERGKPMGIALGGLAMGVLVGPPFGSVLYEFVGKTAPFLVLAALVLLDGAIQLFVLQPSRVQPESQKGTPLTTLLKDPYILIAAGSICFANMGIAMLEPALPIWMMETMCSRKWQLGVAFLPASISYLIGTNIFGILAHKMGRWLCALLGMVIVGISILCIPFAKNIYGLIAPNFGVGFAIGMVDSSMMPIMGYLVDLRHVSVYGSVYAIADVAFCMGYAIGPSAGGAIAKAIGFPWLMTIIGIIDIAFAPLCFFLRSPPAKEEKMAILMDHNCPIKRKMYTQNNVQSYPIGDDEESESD
T1 sequence (P27487 whole entry, species assumed): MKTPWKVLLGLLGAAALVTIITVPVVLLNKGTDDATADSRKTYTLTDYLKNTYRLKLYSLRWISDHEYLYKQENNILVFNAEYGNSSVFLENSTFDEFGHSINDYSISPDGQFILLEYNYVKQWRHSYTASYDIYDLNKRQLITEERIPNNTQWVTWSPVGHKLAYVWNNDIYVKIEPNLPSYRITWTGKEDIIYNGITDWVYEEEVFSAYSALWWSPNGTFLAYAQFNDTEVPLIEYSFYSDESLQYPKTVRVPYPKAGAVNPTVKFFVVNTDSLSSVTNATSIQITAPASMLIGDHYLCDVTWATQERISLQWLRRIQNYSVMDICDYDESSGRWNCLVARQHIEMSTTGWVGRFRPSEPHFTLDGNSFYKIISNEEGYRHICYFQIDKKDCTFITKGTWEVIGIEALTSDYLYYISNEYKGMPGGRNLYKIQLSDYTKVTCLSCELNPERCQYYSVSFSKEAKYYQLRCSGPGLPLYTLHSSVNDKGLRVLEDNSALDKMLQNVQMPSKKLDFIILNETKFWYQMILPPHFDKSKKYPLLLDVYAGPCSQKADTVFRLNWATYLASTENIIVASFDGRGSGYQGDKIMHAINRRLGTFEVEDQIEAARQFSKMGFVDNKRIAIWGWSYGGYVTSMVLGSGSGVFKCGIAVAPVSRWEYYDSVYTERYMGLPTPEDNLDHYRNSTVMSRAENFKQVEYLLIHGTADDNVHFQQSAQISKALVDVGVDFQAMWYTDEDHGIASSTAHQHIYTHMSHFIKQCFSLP

Consider `COc1ccc(C2CC(OCC(C)C)=CC(=O)N2)cc1OC` (stereo not drawn) [compound 8], for which, in test [1] (2 mg/kg i.v. 30 minutes before glucose 2 g/kg I.P.), the “decrease of AUC IPGTT” value turned out to be 45%. Further, in test [1] (2 mg/kg i.v., Lewis rats), the “hypoglycemic activity in IPGTT (improvement of glucose tolerance)” value is “potent hypoglycemic effect”. The “effect on DPP-IV” value in test [2] was “negative”. In addition, the “binding to VMAT2, displacement of [11C]DTBZ in the endocrine pancreas, relative to DTBZ” value in test [3] is listed as “at least a weak binding”. In addition, the “activity on a per mole basis in blocking FFN transport” value in test [4] is given as “less than that of DTBZ”. The “block of FFN uptake/transport” value in test [4] (one hour preincubation) is listed as “able to block FFN transport into INS vesicles”.

The values are drawn from patent US9012471B2, “Glucose metabolism modulating compounds” (The Trustees of Columbia University in the City of New York, priority 2008, dated 2015).
